pIC50: −log10 of the molar value.
Biological target: p38a activated, mitogen-activated protein kinase-activated protein kinase 2 (MAPKAP-K2 or MK2) enzyme (Homo sapiens (Human), UniProt P49137)
Experiment: MK2 Omnia continuous-read kinase assay for compound potency
Type: biochemical
Conditions: [MK-2]=0.4 nM, [ATP]=10 μM, [ST3-Sox]=10 μM; room temperature
Outline: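 Continuous Sox-peptide fluorescence read (ex360/em485) every 71 s over 2 h at room temperature. Reactions: 10 μM each of ATP (at apparent Km) and S/T3-Sox, 0.4 nM p38a-activated MK2, pH 7.5 Tris/MgCl2 buffer. Initial rates yield % inhibition and IC50; single-exponential kobs values yield apparent kinact/KI.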

p38a activated, mitogen-activated protein kinase-activated protein kinase 2 (MAPKAP-K2 or MK2) enzyme, sequence (P49137 whole entry): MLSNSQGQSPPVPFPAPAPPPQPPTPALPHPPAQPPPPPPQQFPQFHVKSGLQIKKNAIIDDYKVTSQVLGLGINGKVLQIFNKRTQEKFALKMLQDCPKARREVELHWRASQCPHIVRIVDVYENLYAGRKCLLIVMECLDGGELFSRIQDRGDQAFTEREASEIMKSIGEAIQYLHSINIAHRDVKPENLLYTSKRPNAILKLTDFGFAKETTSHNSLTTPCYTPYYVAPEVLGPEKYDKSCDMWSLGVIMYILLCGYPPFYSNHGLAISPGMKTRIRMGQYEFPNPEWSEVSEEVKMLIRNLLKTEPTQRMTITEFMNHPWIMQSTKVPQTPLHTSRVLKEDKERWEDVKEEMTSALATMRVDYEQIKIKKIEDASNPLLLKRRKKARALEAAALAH

Row | Compound | pIC50
1 | CC#Cc1ncc(F)c(-c2ccc3c(ccc4sc5c(c43)NC[C@@H](C)NC5=O)n2)n1 [Example I-44, (R)-3-(5-fluoro-2-(prop-1-yn-1-yl)pyrimidin-4-yl)-10-methyl-9,10,11,12-tetrahydro-8H-[1,4]diazepino[5′,6′:4,5]thieno[3,2-f]quinolin-8-one] | 6.00
2 | C=Cc1nccc(-c2ccc3c(ccc4sc5c(c43)NC[C@@H](C)NC5=O)n2)c1F [Example I-217, (R)-3-(3-fluoro-2-vinylpyridin-4-yl)-10-methyl-9,10,11,12-tetrahydro-8H-[1,4]diazepino[5′,6′:4,5]thieno[3,2-f]quinolin-8-one] | 7.11
3 | C#Cc1nccc(-c2ccc3c(ccc4sc5c(c43)NC[C@@H](C)NC5=O)n2)n1 [Example I-40, (R)-3-(2-ethynylpyrimidin-4-yl)-10-methyl-9,10,11,12-tetrahydro-8H-[1,4]diazepino[5′,6′:4,5]thieno[3,2-f]quinolin-8-one] | 7.60
4 | C=Cc1noc(C)c1-c1ccc2c(ccc3sc4c(c32)NC[C@@H](C)NC4=O)n1 [Example I-227, (R)-10-methyl-3-(5-methyl-3-vinylisoxazol-4-yl)-9,10,11,12-tetrahydro-8H-[1,4]diazepino[5′,6′:4,5]thieno[3,2-f]quinolin-8-one] | 6.38
5 | C#Cc1cc(-c2ccc3c(ccc4sc5c(c43)NC[C@@H](C)NC5=O)n2)cc(CN2C[C@@H](C)O[C@@H](C)C2)n1 [Example I-186, (R)-3-(2-(((2S,6R)-2,6-dimethylmorpholino)methyl)-6-ethynylpyridin-4-yl)-10-methyl-9,10,11,12-tetrahydro-8H-[1,4]diazepino[5′,6′:4,5]thieno[3,2-f]quinolin-8-one] | 7.59
6 | C=Cc1cc(-c2ccc3c(ccc4sc5c(c43)NC[C@@H](C)NC5=O)n2)c(Cl)cn1 [Example I-143, (R)-3-(5-chloro-2-vinylpyridin-4-yl)-10-methyl-9,10,11,12-tetrahydro-8H-[1,4]diazepino[5′,6′:4,5]thieno[3,2-f]quinolin-8-one] | 7.23
7 | [2H]C([2H])([2H])N1CCN(c2cc(-c3ccc4c(ccc5sc6c(c54)NC[C@@H](C)NC6=O)n3)cc(C#C)n2)CC1 [Example I-172, (R)-3-(2-ethynyl-6-(4-(methyl-d3)piperazin-1-yl)pyridin-4-yl)-10-methyl-9,10,11,12-tetrahydro-8H-[1,4]diazepino[5′,6′:4,5]thieno[3,2-f]quinolin-8-one] | 7.01
8 | C/C=C/c1ncc(F)c(-c2ccc3c(ccc4sc5c(c43)NC[C@@H](C)NC5=O)n2)n1 [Example I-45, (R,E)-3-(5-fluoro-2-(prop-1-en-1-yl)pyrimidin-4-yl)-10-methyl-9,10,11,12-tetrahydro-8H-[1,4]diazepino[5′,6′:4,5]thieno[3,2-f]quinolin-8-one] | 6.80
9 | C[C@@H]1CNc2c(sc3ccc4nc(-c5cc(Cl)nc(Cl)c5)ccc4c23)C(=O)N1 [Example I-68, (R)-3-(2,6-dichloropyridin-4-yl)-10-methyl-9,10,11,12-tetrahydro-8H-[1,4]diazepino[5′,6′:4,5]thieno[3,2-f]quinolin-8-one] | 6.33
10 | C=Cc1cc(C(F)(F)F)n(-c2ccc3c(ccc4sc5c(c43)NC[C@@H](C)NC5=O)n2)n1 [Example I-257, (R)-10-methyl-3-(5-(trifluoromethyl)-3-vinyl-1H-pyrazol-1-yl)-9,10,11,12-tetrahydro-8H-[1,4]diazepino[5′,6′:4,5]thieno[3,2-f]quinolin-8-one] | 6.00
11 | C[C@@H]1CNc2c(sc3ccc4nc(-c5cc(Cl)nc(C6=CCN(C)CC6)c5)ccc4c23)C(=O)N1 [Example I-100, (R)-3-(6-chloro-1′-methyl-1′,2′,3′,6′-tetrahydro-[2,4′-bipyridin]-4-yl)-10-methyl-9,10,11,12-tetrahydro-8H-[1,4]diazepino[5′,6′:4,5]thieno[3,2-f]quinolin-8-one] | 7.21
12 | [2H]C([2H])([2H])C(O)(c1cnc(C=C)cc1-c1ccc2c(ccc3sc4c(c32)NC[C@@H](C)NC4=O)n1)C([2H])([2H])[2H] [Example I-258, (R)-3-(5-(2-hydroxypropan-2-yl-1,1,1,3,3,3-d6)-2-vinylpyridin-4-yl)-10-methyl-9,10,11,12-tetrahydro-8H-[1,4]diazepino[5′,6′:4,5]thieno[3,2-f]quinolin-8-one] | 6.00
13 | C[C@@H]1CNc2c(sc3ccc4nc(-c5ccnc(Cl)n5)ccc4c23)C(=O)N1 [Example I-8, (R)-3-(2-chloropyrimidin-4-yl)-10-methyl-9,10,11,12-tetrahydro-8H-[1,4]diazepino[5′,6′:4,5]thieno[3,2-f]quinolin-8-one] | 7.12
14 | C=C(CN(C)C)c1cc(-c2ccc3c(ccc4sc5c(c43)NC[C@@H](C)NC5=O)n2)ccn1 [Example I-117, (R)-3-(2-(3-(dimethylamino)prop-1-en-2-yl)pyridin-4-yl)-10-methyl-9,10,11,12-tetrahydro-8H-[1,4]diazepino[5′,6′:4,5]thieno[3,2-f]quinolin-8-one] | 8.22
15 | C[C@@H]1CNc2c(sc3ccc4nc(-c5cc(Cl)nc(C#CC(C)(C)N)n5)ccc4c23)C(=O)N1 [Example I-64, (R)-3-(2-(3-amino-3-methylbut-1-yn-1-yl)-6-chloropyrimidin-4-yl)-10-methyl-9,10,11,12-tetrahydro-8H-[1,4]diazepino[5′,6′:4,5]thieno[3,2-f]quinolin-8-one] | 8.40
16 | C=Cc1cc(-c2ccc3c(ccc4sc5c(c43)NC[C@@H](C)NC5=O)n2)c(C#N)cn1 [Example I-161, (R)-4-(10-methyl-8-oxo-9,10,11,12-tetrahydro-8H-[1,4]diazepino[5′,6′:4,5]thieno[3,2-f]quinolin-3-yl)-6-vinylnicotinonitrile] | 8.70
17 | C#Cc1cc(-c2ccc3c(ccc4sc5c(c43)NC[C@@H](C)NC5=O)n2)cc(N2CCC2)n1 [Example I-180, (R)-3-(2-(azetidin-1-yl)-6-ethynylpyridin-4-yl)-10-methyl-9,10,11,12-tetrahydro-8H-[1,4]diazepino[5′,6′:4,5]thieno[3,2-f]quinolin-8-one] | 6.74
18 | C[C@@H]1CNc2c(sc3ccc4nc(-c5nc(Cl)cc(N6CCN(C)CC6)n5)ccc4c23)C(=O)N1 [Example I-43, (R)-3-(4-chloro-6-(4-methylpiperazin-1-yl)pyrimidin-2-yl)-10-methyl-9,10,11,12-tetrahydro-8H-[1,4]diazepino[5′,6′:4,5]thieno[3,2-f]quinolin-8-one] | 6.36
19 | C[C@@H]1CNc2c(sc3ccc4nc(-c5cc(Cl)ncc5F)ccc4c23)C(=O)N1 [Example I-69, (R)-3-(2-chloro-5-fluoropyridin-4-yl)-10-methyl-9,10,11,12-tetrahydro-8H-[1,4]diazepino[5′,6′:4,5]thieno[3,2-f]quinolin-8-one] | 7.57
20 | C[C@@H]1CNc2c(sc3ccc4nc(-c5nc(Cl)ncc5F)ccc4c23)C(=O)N1 [Example I-273, (R)-3-(2-chloro-5-fluoropyrimidin-4-yl)-10-methyl-9,10,11,12-tetrahydro-8H-[1,4]diazepino[5′,6′:4,5]thieno[3,2-f]quinolin-8-one] | 6.82
21 | C=Cc1cc(-c2ccc3c(ccc4sc5c(c43)NC[C@@H](C)NC5=O)n2)cc(N2CC3(COC3)C2)n1 [Example I-238, (R)-3-(2-(2-oxa-6-azaspiro[3.3]heptan-6-yl)-6-vinylpyridin-4-yl)-10-methyl-9,10,11,12-tetrahydro-8H-[1,4]diazepino[5′,6′:4,5]thieno[3,2-f]quinolin-8-one] | 8.22
22 | C=Cc1cc(-c2ccc3c(ccc4sc5c(c43)NC[C@@H](C)NC5=O)n2)nc(C#CC(C)(C)N)n1 [Example I-66, (R)-3-(2-(3-amino-3-methylbut-1-yn-1-yl)-6-vinylpyrimidin-4-yl)-10-methyl-9,10,11,12-tetrahydro-8H-[1,4]diazepino[5′,6′:4,5]thieno[3,2-f]quinolin-8-one] | 8.05
23 | C#Cc1cc(-c2ccc3c(ccc4sc5c(c43)NC[C@@H](C)NC5=O)n2)cc(N2CCNCC2)n1 [Example I-176, (R)-3-(2-ethynyl-6-(piperazin-1-yl)pyridin-4-yl)-10-methyl-9,10,11,12-tetrahydro-8H-[1,4]diazepino[5′,6′:4,5]thieno[3,2-f]quinolin-8-one] | 7.15
24 | C=Cc1ncc(F)c(-c2ccc3c(ccc4sc5c(c43)NC[C@@H](C)NC5=O)n2)n1 [Example I-2, (R)-3-(5-fluoro-2-vinylpyrimidin-4-yl)-10-methyl-9,10,11,12-tetrahydro-8H-[1,4]diazepino[5′,6′:4,5]thieno[3,2-f]quinolin-8-one] | 6.88
25 | C#Cc1cc(-c2ccc3c(ccc4sc5c(c43)NC[C@@H](C)NC5=O)n2)cc(N2CCN(C)CC2)n1 [Example I-95, (R)-3-(2-ethynyl-6-(4-methylpiperazin-1-yl)pyridin-4-yl)-10-methyl-9,10,11,12-tetrahydro-8H-[1,4]diazepino[5′,6′:4,5]thieno[3,2-f]quinolin-8-one] | 7.38
26 | C=Cc1cc(-c2ccc3c(ccc4sc5c(c43)NC[C@@H](C)NC5=O)n2)cc(N2CCC(COC)CC2)n1 [Example I-240, (R)-3-(2-(4-(methoxymethyl)piperidin-1-yl)-6-vinylpyridin-4-yl)-10-methyl-9,10,11,12-tetrahydro-8H-[1,4]diazepino[5′,6′:4,5]thieno[3,2-f]quinolin-8-one] | 6.97
27 | COCc1nc(Cl)cc(-c2ccc3c(ccc4sc5c(c43)NC[C@@H](C)NC5=O)n2)n1 [Example I-7, (R)-3-(6-chloro-2-(methoxymethyl)pyrimidin-4-yl)-10-methyl-9,10,11,12-tetrahydro-8H-[1,4]diazepino[5′,6′:4,5]thieno[3,2-f]quinolin-8-one] | 8.22
28 | C=Cc1nc(CN2CCN(C)CC2)cc(-c2ccc3c(ccc4sc5c(c43)NC[C@@H](C)NC5=O)n2)n1 [Example I-88, (R)-10-methyl-3-(6-((4-methylpiperazin-1-yl)methyl)-2-vinylpyrimidin-4-yl)-9,10,11,12-tetrahydro-8H-[1,4]diazepino[5′,6′:4,5]thieno[3,2-f]quinolin-8-one] | 7.82

— patent US20240190890A1, “MK2 INHIBITORS AND USES THEREOF” (Bristol-Myers Squibb Company, priority 2022, published 2024)
